From patent publication US8895756B2, “Bendamustine pharmaceutical compositions” (priority 2005, dated 2014)
Read-outs that look alike come from different tables or passages of the source.

Tests used:
[1] = HPLC stability of bendamustine in TBA 20% (v/v) with and without mannitol over 24 hours; type: physicochemical
Description: FIGS. 3 and 4 show the amount of degradation of bendamustine as measured by HP1 and dimer formation quantified by HPLC (as described herein). HP1 and dimer formation increased as the amount of alcohol concentration decreased regardless of the alcohol. This increase in impurities occurred with an anticipated time dependence (see Tables 3-9).

[2] = Fisher esterification conditions: formation of t-butyl ester of bendamustine in TBA; type: physicochemical; settings: heated in 60° C. TBA with HCl for 20 hours
Protocol: Experiments were performed using traditional Fisher esterification reaction conditions required for the formation of t-butyl ester of bendamustine. Bendamustine was heated in 60° C. TBA with HCl for 20 hours.

[3] = for Bendamustine solubility: 5° C.
Protocol: (§1) Samples were then refrigerated at 5° C. and inspected after 0, 3, 6 and 24 hours for particulates and/or precipitates.

[4] = reconstituted with 40 mL Sterile Water for Injection, cited from earlier work
physchem = settings: 5 °C
Protocol: as §1

[5] = 10% (v/v) methanol in water with 25.5 mg/mL mannitol, aqueous with cosolvent or surfactant or cyclodextrin
[6] = alcohol/water solution with mannitol 25.5 mg/mL, aqueous with cosolvent or surfactant or cyclodextrin
[7] = alcohol/water solution with mannitol 25.5 mg/mL, aqueous with cosolvent or surfactant or cyclodextrin, thermodynamic from solid
[8] = alcohol/water solution with mannitol, aqueous with cosolvent or surfactant or cyclodextrin
[9] = alcohol/water solution with mannitol, aqueous with cosolvent or surfactant or cyclodextrin, thermodynamic from solid
[10] = alcohol/water solution with mannitol, water, thermodynamic from solid
[11] = water with mannitol 25.5 mg/mL, water, thermodynamic from solid

## Cl.Cn1c(CCCC(=O)O)nc2cc(N(CCCl)CCCl)ccc21 [bendamustine, 4-{5-[Bis(2-chloroethyl)amino]-1-methyl-2-benzimidazolyl}butyric acid]
[1]; TBA 20% (v/v) with Mannitol, 0 hours, reverse phase HPLC
  Purity (% Area): 99.59 % Area
[1]; TBA 20% (v/v) with Mannitol, 24 hours @ 5° C., reverse phase HPLC
  Purity (% Area): 99.35 % Area
[1]; TBA 20% (v/v) without Mannitol, 0 hours, normal phase HPLC
  Purity (% Area): 100.0 % Area
[1]; TBA 20% (v/v) without Mannitol, 24 hours @ 5° C., normal phase HPLC
  Purity (% Area): 98.80 % Area
[2]
  formation of t-butyl ester: No reaction was observed
[3]; 0% (Water Only), 6 Hours
  Bendamustine solubility: Precipitate
[3]; 0% (Water Only), 24 Hours
  Bendamustine solubility: Precipitate
[3]; 15 mg/mL bendamustine, 5% and 10% ethanol and TBA without mannitol, over 24 hours
  precipitation: did not precipitate
[3]; 1.9% Ethanol (v/v), 6 Hours
  Bendamustine solubility: Precipitate
[3]; 1.9% Ethanol (v/v), 24 Hours
  Bendamustine solubility: Precipitate
[3]; 5% Ethanol (v/v), 6 Hours
  Bendamustine solubility: Precipitate
[3]; 5% Ethanol (v/v), 24 Hours
  Bendamustine solubility: Precipitate
[3]; 5% Iso-propanol (v/v), 3 Hours
  Bendamustine solubility: Precipitate
[3]; 5% Iso-propanol (v/v), 6 Hours
  Bendamustine solubility: Precipitate
[3]; 5% Iso-propanol (v/v), 24 Hours
  Bendamustine solubility: Precipitate
[3]; 5% Methanol (v/v), 6 Hours
  Bendamustine solubility: Precipitate
[3]; 5% Methanol (v/v), 24 Hours
  Bendamustine solubility: Precipitate
[3]; 5% Tert-Butanol (v/v), 24 Hours
  Bendamustine solubility: Precipitate
[3]; 5% n-Propanol (v/v), 24 Hours
  Bendamustine solubility: Precipitate
[3]; 10% Ethanol (v/v), 24 Hours
  Bendamustine solubility: Precipitate
[3]; 10% Methanol (v/v), 24 Hours
  Bendamustine solubility: Precipitate
[3]; 10% Tert-Butanol (v/v), 24 Hours
  Bendamustine solubility: Precipitate
[3]; 20% Methanol (v/v), 24 Hours
  Bendamustine solubility: Precipitate
[3]; 20% n-Butanol (v/v), 3 Hours
  Bendamustine solubility: 2 layers
[3]; 20% n-Butanol (v/v), 6 Hours
  Bendamustine solubility: 2 layers
[3]; 20% n-Butanol (v/v), 24 Hours
  Bendamustine solubility: 2 layers
[3]; 20% n-Butanol (v/v), Zero Time
  Bendamustine solubility: 2 layers
[3]; 30% n-Butanol (v/v), 3 Hours
  Bendamustine solubility: 2 layers
[3]; 30% n-Butanol (v/v), 6 Hours
  Bendamustine solubility: 2 layers
[3]; 30% n-Butanol (v/v), 24 Hours
  Bendamustine solubility: 2 layers
[3]; 30% n-Butanol (v/v), Zero Time
  Bendamustine solubility: 2 layers
20% (v/v) TBA, 5° C.
  saturation limit: 17.2 mg/mL
30% TBA/water, 0° C.
  concentration of saturated solution: 18000 µg/mL
[4]; room temperature storage
  stable period after reconstitution: 7 h
[4]; storage at 2-8° C.
  stable period after reconstitution: 140 h
physchem; [5]
  solubility at 0 h: > 15 mg/mL
  solubility at 3 h: > 15 mg/mL
  solubility at 6 h: > 15 mg/mL
physchem; [6]
  solubility at 0 h: > 15 mg/mL
  solubility at 3 h: > 15 mg/mL
  solubility at 6 h: > 15 mg/mL
  solubility at 24 h: > 15 mg/mL
physchem; [7]
  solubility at 0 h: > 15 mg/mL
  solubility at 3 h: > 15 mg/mL
  solubility at 6 h: > 15 mg/mL
  solubility at 24 h: > 15 mg/mL
physchem; [8]
  solubility at 0 h: > 15 mg/mL
  solubility at 3 h: > 15 mg/mL
  solubility at 6 h: > 15 mg/mL
  solubility at 24 h: > 15 mg/mL
physchem; [9]
  solubility at 0 h: > 15 mg/mL
  solubility at 3 h: > 15 mg/mL
  solubility at 6 h: > 15 mg/mL
  solubility at 24 h: > 15 mg/mL
physchem; [10]
  solubility at 0 h: > 15 mg/mL
  solubility at 3 h: > 15 mg/mL
physchem; [11]
  solubility at 0 h: > 15 mg/mL
  solubility at 3 h: > 15 mg/mL
